# Experimental data: ChEMBL document CHEMBL1133079, “Synthesis and antibacterial activity of novel 6-O-substituted erythromycin A derivatives” (2000)
# Tests used:
# Type in all cases: functional
# [1] = test system: Streptococcus pneumoniae; assay: In vitro minimum inhibitory concentration against Streptococcus pneumoniae 5649.
# [2] = test system: Streptococcus pneumoniae; assay: In vitro minimum inhibitory concentration against Streptococcus pneumoniae 5737.
# [3] = test system: Streptococcus pyogenes; assay: In vitro minimum inhibitory concentration against Streptococcus pyogenes 930 using standard agar dilution method
# [4] = test system: Staphylococcus aureus; assay: In vitro minimum inhibitory concentration against Staphylococcus aureus 6538P using standard agar dilution method
# [5] = test system: Streptococcus pyogenes; assay: In vitro minimum inhibitory concentration against Streptococcus pyogenes PIU 2548 using standard agar dilution method
# [6] = test system: Staphylococcus aureus; assay: In vitro minimum inhibitory concentration against Staphylococcus aureus A5177.
# [7] = test system: Streptococcus pyogenes; assay: In vitro minimum inhibitory concentration against Streptococcus pyogenes EES61 using standard agar dilution method
# [8] = test system: Haemophilus influenzae; assay: In vitro minimum inhibitory concentration against Haemophilus influenzae DILL using standard agar dilution method
# [9] = test system: Streptococcus pneumoniae; assay: In vitro minimum inhibitory concentration against Streptococcus pneumoniae ATCC 6303.
MIC [1] [µg/mL],MIC [2] [µg/mL],MIC [3] [µg/mL],MIC [4] [µg/mL],MIC [5] [µg/mL],MIC [6] [µg/mL],MIC [7] [µg/mL],MIC [8] [µg/mL],MIC [9] [µg/mL],SMILES
16,64,> 128,1.56,16,12.5,0.06,,,CC[C@H]1OC(=O)[C@H](C)[C@@H](O[C@H]2C[C@@](C)(OC)[C@@H](O)[C@H](C)O2)[C@H](C)[C@@H](O[C@@H]2O[C@H](C)C[C@H](N(C)C)[C@H]2O)[C@@](C)(OCc2ccccc2)C[C@@H](C)C(=O)[C@H](C)[C@@H](O)[C@]1(C)O
,,> 128,25,> 128,25,4,> 128,,CC[C@H]1OC(=O)[C@H](C)[C@@H](O[C@H]2C[C@@](C)(OC)[C@@H](O)[C@H](C)O2)[C@H](C)[C@@H](O[C@@H]2O[C@H](C)C[C@H](N(C)C)[C@H]2O)[C@@](C)(OCC2CO2)C[C@@H](C)C(=O)[C@H](C)[C@@H](O)[C@]1(C)O (stereo partly drawn)
16,> 128,> 128,0.2,,12.5,0.03,16,0.06,C#CCO[C@@]1(C)C[C@@H](C)C(=O)[C@H](C)[C@@H](O)[C@](C)(O)[C@@H](CC)OC(=O)[C@H](C)[C@@H](O[C@H]2C[C@@](C)(OC)[C@@H](O)[C@H](C)O2)[C@H](C)[C@H]1O[C@@H]1O[C@H](C)C[C@H](N(C)C)[C@H]1O
32,> 128,> 128,0.78,64,12.5,0.25,8,0.125,CC[C@H]1OC(=O)[C@H](C)[C@@H](O[C@H]2C[C@@](C)(OC)[C@@H](O)[C@H](C)O2)[C@H](C)[C@@H](O[C@@H]2O[C@H](C)C[C@H](N(C)C)[C@H]2O)[C@@](C)(OCCNCc2ccccc2)C[C@@H](C)C(=O)[C@H](C)[C@@H](O)[C@]1(C)O
8,8,8,3.1,8,12.5,1,64,1,CC[C@H]1OC(=O)[C@H](C)[C@@H](O[C@H]2C[C@@](C)(OC)[C@@H](O)[C@H](C)O2)[C@H](C)[C@@H](O[C@@H]2O[C@H](C)C[C@H](N(C)C)[C@H]2O)[C@@](C)(OCc2ccc(F)cc2)C[C@@H](C)C(=O)[C@H](C)[C@@H](O)[C@]1(C)O
32,> 128,,0.2,64,,0.015,16,0.06,CC[C@H]1OC(=O)[C@H](C)[C@@H](O[C@H]2C[C@@](C)(OC)[C@@H](O)[C@H](C)O2)[C@H](C)[C@@H](O[C@@H]2O[C@H](C)C[C@H](N(C)C)[C@H]2O)[C@@](C)(OC/C=N/O)C[C@@H](C)C(=O)[C@H](C)[C@@H](O)[C@]1(C)O
4,128,64,0.2,4,3.1,0.06,8,0.06,CC[C@H]1OC(=O)[C@H](C)[C@@H](O[C@H]2C[C@@](C)(OC)[C@@H](O)[C@H](C)O2)[C@H](C)[C@@H](O[C@@H]2O[C@H](C)C[C@H](N(C)C)[C@H]2O)[C@@](C)(OC/C=C/c2cnc3ccccc3c2)C[C@@H](C)C(=O)[C@H](C)[C@@H](O)[C@]1(C)O
64,> 128,> 128,0.78,128,25,0.06,8,0.5,CC[C@H]1OC(=O)[C@H](C)[C@@H](O[C@H]2C[C@@](C)(OC)[C@@H](O)[C@H](C)O2)[C@H](C)[C@@H](O[C@@H]2O[C@H](C)C[C@H](N(C)C)[C@H]2O)[C@@](C)(OCC=O)C[C@@H](C)C(=O)[C@H](C)[C@@H](O)[C@]1(C)O
64,> 128,> 128,0.78,128,25,0.125,8,0.25,CC[C@H]1OC(=O)[C@H](C)[C@@H](O[C@H]2C[C@@](C)(OC)[C@@H](O)[C@H](C)O2)[C@H](C)[C@@H](O[C@@H]2O[C@H](C)C[C@H](N(C)C)[C@H]2O)[C@@](C)(OC/C=N/Nc2ccccn2)C[C@@H](C)C(=O)[C@H](C)[C@@H](O)[C@]1(C)O
64,> 128,,0.39,,6.2,0.125,8,0.125,CC[C@H]1OC(=O)[C@H](C)[C@@H](O[C@H]2C[C@@](C)(OC)[C@@H](O)[C@H](C)O2)[C@H](C)[C@@H](O[C@@H]2O[C@H](C)C[C@H](N(C)C)[C@H]2O)[C@@](C)(OCC(O)CNCc2ccccc2)C[C@@H](C)C(=O)[C@H](C)[C@@H](O)[C@]1(C)O (stereo partly drawn)
32,32,> 64,0.2,16,6.2,0.03,4,0.008,CC[C@H]1OC(=O)[C@H](C)[C@@H](O[C@H]2C[C@@](C)(OC)[C@@H](O)[C@H](C)O2)[C@H](C)[C@@H](O[C@@H]2O[C@H](C)C[C@H](N(C)C)[C@H]2O)[C@@](C)(OCC(O)CNCCc2ccccc2)C[C@@H](C)C(=O)[C@H](C)[C@@H](O)[C@]1(C)O (stereo partly drawn)
16,> 128,> 128,0.05,32,3.1,0.03,4,0.03,CC[C@H]1OC(=O)[C@H](C)[C@@H](O[C@H]2C[C@@](C)(OC)[C@@H](O)[C@H](C)O2)[C@H](C)[C@@H](O[C@@H]2O[C@H](C)C[C@H](N(C)C)[C@H]2O)[C@@](C)(OCCNCCCc2ccccc2)C[C@@H](C)C(=O)[C@H](C)[C@@H](O)[C@]1(C)O
32,> 128,> 128,0.78,64,25,0.125,16,0.125,CC[C@H]1OC(=O)[C@H](C)[C@@H](O[C@H]2C[C@@](C)(OC)[C@@H](O)[C@H](C)O2)[C@H](C)[C@@H](O[C@@H]2O[C@H](C)C[C@H](N(C)C)[C@H]2O)[C@@](C)(OC/C=N/OC)C[C@@H](C)C(=O)[C@H](C)[C@@H](O)[C@]1(C)O
,,> 128,0.78,64,12.5,,32,,C=CCO[C@@]1(C)C[C@@H](C)C(=O)[C@H](C)[C@@H](O)[C@](C)(O)[C@@H](CC)OC(=O)[C@H](C)[C@@H](O[C@H]2C[C@@](C)(OC)[C@@H](O)[C@H](C)O2)[C@H](C)[C@H]1O[C@@H]1O[C@H](C)C[C@H](N(C)C)[C@H]1O
,,> 128,3.1,128,,,,,CC[C@H]1OC(=O)[C@H](C)[C@@H](O[C@H]2C[C@@](C)(OC)[C@@H](O)[C@H](C)O2)[C@H](C)[C@@H](O[C@@H]2O[C@H](C)C[C@H](N(C)C)[C@H]2O)[C@@](C)(OCC(C)=O)C[C@@H](C)C(=O)[C@H](C)[C@@H](O)[C@]1(C)O
16,> 128,> 128,0.2,32,,0.03,8,0.06,CC[C@H]1OC(=O)[C@H](C)[C@@H](O[C@H]2C[C@@](C)(OC)[C@@H](O)[C@H](C)O2)[C@H](C)[C@@H](O[C@@H]2O[C@H](C)C[C@H](N(C)C)[C@H]2O)[C@@](C)(OCC#N)C[C@@H](C)C(=O)[C@H](C)[C@@H](O)[C@]1(C)O
